Molecular target: T1, RANTES/MIP-1α chemokine receptor (CCR1) in THP-1 cell membranes (Homo sapiens, UniProt P32246)
T1 construct: Membranes were prepared from THP-1 cells (ATCC #TIB202); host or cells: THP-1 cells (membrane preparation)
T1 sequence (P32246 1-355): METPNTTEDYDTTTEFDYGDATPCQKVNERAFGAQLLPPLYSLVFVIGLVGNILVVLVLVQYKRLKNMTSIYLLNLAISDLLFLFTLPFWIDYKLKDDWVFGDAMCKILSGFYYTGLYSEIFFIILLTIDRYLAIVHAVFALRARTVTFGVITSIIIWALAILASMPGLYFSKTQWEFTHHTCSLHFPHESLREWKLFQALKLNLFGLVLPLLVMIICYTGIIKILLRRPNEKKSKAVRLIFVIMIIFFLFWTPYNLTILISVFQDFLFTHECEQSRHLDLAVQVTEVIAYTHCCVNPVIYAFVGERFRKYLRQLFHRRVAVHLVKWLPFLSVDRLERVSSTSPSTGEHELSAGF
Assay: Receptor binding assay: 125I-RANTES or 125I-MIP-1α binding to THP-1 cell membranes
Conditions: inhibitor concentration required for 50% inhibition of specific binding; 125I-RANTES or 125I-MIP-1α as ligand, THP-1 cell membranes; read-out: IC50

IC50 | Compound
< 10 µM | CC(C)(O)c1ccc2c(c1)C(=CCCN1CCC(N(Cc3ccc(Cl)cc3)C(=O)C3CCCC3)C1)c1cccnc1CO2 (stereo not drawn) [Example 564, Cyclopentanecarboxylic acid (4-chloro-benzyl)-(1-{3-[7-(1-hydroxy-1-methyl-ethyl)-11H-10-oxa-1-aza-dibenzo[a,d]cyclohepten-5-ylidene]-propyl}-pyrrolidin-3-yl)-amide]
< 10 µM | CC(C)(O)c1ccc2c(c1)C(=CCCN1CCC(N(Cc3ccc(Cl)cc3)C(=O)C3CCCCC3)C1)c1cccnc1CO2 (stereo not drawn) [Example 565, Cyclohexanecarboxylic acid (4-chloro-benzyl)-(1-{3-[7-(1-hydroxy-1-methyl-ethyl)-11H-10-oxa-1-aza-dibenzo[a,d]cyclohepten-5-ylidene]-propyl}-pyrrolidin-3-yl)-amide]
< 20 µM | CCCCC(CC)C(=O)N(Cc1ccc(Cl)cc1)C1CCN(CCC=C2c3cc(C(C)(C)O)ccc3OCc3ncccc32)C1 (stereo not drawn) [Example 566, 2-Ethyl-hexanoic acid (4-chloro-benzyl)-(1-{3-[7-(1-hydroxy-1-methyl-ethyl)-11H-10-oxa-1-aza-dibenzo[a,d]cyclohepten-5-ylidene]-propyl}-pyrrolidin-3-yl)-amide]
< 1 µM | CC(C)NC(=O)N(Cc1ccc(Cl)cc1)C1CCN(CCC=C2c3cc(C(C)(C)O)ccc3OCc3ncccc32)C1 (stereo not drawn) [Example 567, 1-(4-Chloro-benzyl)-1-(1-{3-[7-(1-hydroxy-1-methyl-ethyl)-11H-10-oxa-1-aza-dibenzo[a,d]cyclohepten-5-ylidene]-propyl}-pyrrolidin-3-yl)-3-isopropyl-urea]
< 1 µM | CC(C)(O)c1ccc2c(c1)C(=CCCN1CCC(N(Cc3ccc(Cl)cc3)C(=O)NC3CCCCC3)C1)c1cccnc1CO2 (stereo not drawn) [Example 568, 1-(4-Chloro-benzyl)-3-cyclohexyl-1-(1-{3-[7-(1-hydroxy-1-methyl-ethyl)-11H-10-oxa-1-aza-dibenzo[a,d]cyclohepten-5-ylidene]-propyl}-pyrrolidin-3-yl)-urea]
< 1 µM | CCNC(=O)N(Cc1ccc(Cl)cc1)C1CCN(CCC=C2c3cc(C(C)(C)O)ccc3OCc3ncccc32)C1 (stereo not drawn) [Example 569, 1-(4-Chloro-benzyl)-3-ethyl-1-(1-{3-[7-(1-hydroxy-1-methyl-ethyl)-11H-10-oxa-1-aza-dibenzo[a,d]cyclohepten-5-ylidene]-propyl}-pyrrolidin-3-yl)-urea]
< 10 µM | CC(C)(C)CC(C)(C)NC(=O)N(Cc1ccc(Cl)cc1)C1CCN(CCC=C2c3cc(C(C)(C)O)ccc3OCc3ncccc32)C1 (stereo not drawn) [Example 570, 1-(4-Chloro-benzyl)-1-(1-{3-[7-(1-hydroxy-1-methyl-ethyl)-11H-10-oxa-1-aza-dibenzo[a,d]cyclohepten-5-ylidene]-propyl}-pyrrolidin-3-yl)-3-(1,1,3,3-tetramethyl-butyl)-urea]
< 10 µM | CC(C)(O)c1ccc2c(c1)C(=CCCN1CCC(N(Cc3ccc(Cl)cc3)S(C)(=O)=O)C1)c1cccnc1CO2 (stereo not drawn) [Example 571, N-(4-Chloro-benzyl)-N-(1-{3-[7-(1-hydroxy-1-methyl-ethyl)-11H-10-oxa-1-aza-dibenzo[a,d]cyclohepten-5-ylidene]-propyl}-pyrrolidin-3-yl)-methanesulfonamide]

Compound | IC50
Methyl 1-[3-(5,11-dihydro-7-methoxy[1]benzoxepino[2,3-b]pyridin-5-ylidene)propyl]-4-phenylpiperidin-4-carboxylate [Example 188] | > 10 µM

— patent publication US8653096B2, “Chemokine receptor antagonists and methods of use thereof” (Millennium Pharmaceuticals, Inc., priority 2001, dated 2014)
